Each block holds one compound with its values, some of them ahead of it. Active and inactive are the calls of the source.
Legend:
[1] = HIV-1 Vif–A3G interaction blockers – biochemical, TR-FRET, GST-Vif 1-94, biotin-A3G peptide, dose response retest, primary screen (AID 1117319); type: functional;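 further: TR-FRET signal of purified GST-Vif binding a biotinylated A3G peptide; inhibitors lower the FRET signal by blocking Vif and A3G binding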
[2] = Trypanosoma cruzi growth suppression in host cells – NIH3T3 host cells, beta-gal luminescence, confirmation (AID 2044); type: functional, cell-based;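 further: intracellular parasites grown in NIH/3T3 mouse fibroblasts as host cells; luminescent beta-galactosidase reporter signal from transgenic T. cruzi replicating inside host cells; inhibitors lower the luminescence signal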
[3] = NIH3T3 cell viability loss – ATP luminescence, mouse fibroblasts, counter-screen, dose response (AID 2010); type: functional, cell-based;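 further: cells exposed to compound for about 90 hours before reading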
Estrogen receptor beta [4] = target: T1, Estrogen receptor beta (Homo sapiens, UniProt Q92731);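 further: recombinant ER-beta bound to coactivator SRC1 peptide in presence of estradiol agonist; inhibitors block coactivator peptide binding and lower the FRET signal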
T1 sequence (Q92731 whole entry): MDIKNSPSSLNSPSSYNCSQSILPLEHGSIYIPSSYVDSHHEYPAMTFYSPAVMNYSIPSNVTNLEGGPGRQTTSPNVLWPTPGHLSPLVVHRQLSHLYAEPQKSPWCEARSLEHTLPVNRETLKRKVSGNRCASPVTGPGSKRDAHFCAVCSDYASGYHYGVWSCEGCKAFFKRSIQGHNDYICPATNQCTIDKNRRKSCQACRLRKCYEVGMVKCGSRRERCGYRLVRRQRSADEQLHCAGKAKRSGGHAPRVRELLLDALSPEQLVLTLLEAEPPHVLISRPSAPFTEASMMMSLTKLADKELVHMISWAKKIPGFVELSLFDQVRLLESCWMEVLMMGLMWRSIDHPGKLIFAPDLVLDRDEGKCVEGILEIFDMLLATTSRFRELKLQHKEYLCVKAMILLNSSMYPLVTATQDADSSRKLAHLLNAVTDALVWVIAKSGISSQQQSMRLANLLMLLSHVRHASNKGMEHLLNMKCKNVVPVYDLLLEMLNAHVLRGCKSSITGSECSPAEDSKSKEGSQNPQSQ

Estrogen receptor beta [5] = target: T1, Estrogen receptor beta; experiment: blockers of SRC-3 recruitment to ERβ – biochemical, ELISA, streptavidin-HRP readout, orthogonal assay, confirmation (AID 1060)
Aminopeptidase N = target: T2, Aminopeptidase N (Plasmodium falciparum FcB1/Columbia, UniProt O96935); experiment: malaria alanyl aminopeptidase activity blockers – biochemical, fluorogenic H-Leu-NHMec substrate, 1536-well (AID 1445); parameters: species or system Plasmodium falciparum 3D7, 3D7
T2 sequence (O96935 whole entry): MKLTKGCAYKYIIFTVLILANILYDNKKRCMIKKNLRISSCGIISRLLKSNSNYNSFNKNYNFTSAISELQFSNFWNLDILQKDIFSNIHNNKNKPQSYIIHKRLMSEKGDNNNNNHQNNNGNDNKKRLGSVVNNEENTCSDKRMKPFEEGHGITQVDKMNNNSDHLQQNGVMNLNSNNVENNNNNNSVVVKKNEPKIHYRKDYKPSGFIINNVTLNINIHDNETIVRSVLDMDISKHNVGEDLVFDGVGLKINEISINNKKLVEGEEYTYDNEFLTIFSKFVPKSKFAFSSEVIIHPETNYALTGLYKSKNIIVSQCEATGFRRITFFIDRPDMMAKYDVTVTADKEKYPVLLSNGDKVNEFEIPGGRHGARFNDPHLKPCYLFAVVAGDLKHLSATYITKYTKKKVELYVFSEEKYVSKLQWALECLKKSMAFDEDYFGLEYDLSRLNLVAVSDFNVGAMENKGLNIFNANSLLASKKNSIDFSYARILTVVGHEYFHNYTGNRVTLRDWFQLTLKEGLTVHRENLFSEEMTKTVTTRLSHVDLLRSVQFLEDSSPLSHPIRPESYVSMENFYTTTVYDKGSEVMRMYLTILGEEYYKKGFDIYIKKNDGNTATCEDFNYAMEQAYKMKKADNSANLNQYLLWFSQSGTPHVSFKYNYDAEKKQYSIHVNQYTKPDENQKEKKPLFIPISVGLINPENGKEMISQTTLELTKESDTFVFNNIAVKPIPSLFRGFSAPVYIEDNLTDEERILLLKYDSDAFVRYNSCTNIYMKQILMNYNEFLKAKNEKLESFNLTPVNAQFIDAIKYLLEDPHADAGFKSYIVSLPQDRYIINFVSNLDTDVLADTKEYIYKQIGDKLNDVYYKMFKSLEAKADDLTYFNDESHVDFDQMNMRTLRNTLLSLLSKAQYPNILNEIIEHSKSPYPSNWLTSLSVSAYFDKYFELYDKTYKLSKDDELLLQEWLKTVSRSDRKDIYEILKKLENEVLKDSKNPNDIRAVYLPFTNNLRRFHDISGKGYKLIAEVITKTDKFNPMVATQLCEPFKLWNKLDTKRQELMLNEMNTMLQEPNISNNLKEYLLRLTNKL

Caspase-6 = target: T3, Caspase-6 (Homo sapiens, UniProt P55212); experiment: inhibition of CASP6 peptide cleavage – biochemical, VEID-R110 fluorescence, cherry-pick, dose response (AID 720632)
T3 sequence (P55212 whole entry): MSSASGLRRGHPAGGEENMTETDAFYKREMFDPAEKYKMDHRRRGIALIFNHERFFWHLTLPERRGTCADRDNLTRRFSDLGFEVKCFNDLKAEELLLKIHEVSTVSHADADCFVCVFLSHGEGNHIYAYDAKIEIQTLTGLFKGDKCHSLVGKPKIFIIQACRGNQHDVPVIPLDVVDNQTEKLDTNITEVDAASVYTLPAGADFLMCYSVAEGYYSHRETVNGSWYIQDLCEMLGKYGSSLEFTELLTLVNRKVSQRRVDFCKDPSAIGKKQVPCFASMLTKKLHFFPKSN

[6] = growth inhibition of yeast DHODH-expressing 3D7 parasites – SYBR Green, dry powder samples, dose response (AID 1159570); type: functional, cell-based;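 further: parasite growth measured after 72 hours of compound exposure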
[7] = toxicity to human HepG2 hepatoma cells – cell-based, plate reader, dry powder samples, cytotoxicity control, dose response (AID 1159569); type: functional;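 further: inhibitor potency with signal falling toward the positive control level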
[8] = P. falciparum Dd2 growth inhibitors, dose response, SYBR Green, cherry-picked samples (AID 1159567); type: functional, cell-based
[9] = Dd2 malaria parasite growth inhibition potency – SYBR Green, dry powder samples, dose response (AID 1159566); type: functional, cell-based;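 further: potency for growth inhibition with lower SYBR green DNA signal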
[10] = growth inhibition of PfATP4-mutant resistant parasites – NITD609-resistant line, SYBR Green, dry powder, dose response (AID 1159571); type: functional, cell-based;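 further: parasites synchronized at ring stage by sorbitol before testing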
[11] = toxicity to human hepatoma HepG2 cells – cell-based, cherry-picked samples, cytotoxicity control, dose response (AID 1159577); type: functional

IC50 [1]: > 100 µM (active)
SMILES: CCOc1ccc(C2c3c(oc4ccccc4c3=O)C(=O)N2CCCN2CCOCC2)cc1 (stereo unspecified)

SMILES: O=C(C1=C[C@H](C2CCCCC2)C[C@H](OCCCCO)O1)N1CCN(Cc2ccc3c(c2)OCO3)CC1
EC50 [2]: < 0.1 µM (active) | EC50 [3]: > 60 µM (not active) | EC50 (cells): 0.058 µM (active)

IC50 [1]: > 100 µM (active)
SMILES: O=C1C2CCCN2C(c2ccccc2)N1c1nccs1 (stereo unspecified)

IC50 [1]: > 100 µM (active)
SMILES: CC(=O)N1CCc2cc(S(=O)(=O)NCCC(=O)Nc3cccc(C)c3C)ccc21

IC50 (Estrogen receptor beta [4]): 18.5 µM (active) | IC50 (Estrogen receptor beta [5]): 18.2 µM (not active)
SMILES: CCOc1[nH]c(/N=C/c2ccco2)c(C#N)c1C#N

IC50 (Aminopeptidase N): 54.1 µM (active) | AC50 (Caspase-6): 25.1 µM (active)
SMILES: O=C(O)CC1SC(N/N=C/c2ccc(-c3ccc(Cl)c([N+](=O)[O-])c3)o2)=NC1=O (stereo unspecified)

SMILES: COc1ccc2c3c(n(C)c2c1)[C@H](CO)N(CC1CCOCC1)CC31CCN(Cc2nccs2)CC1
AC50 [6]: 0.845 µM (active) | AC50 [7]: > 100 µM (inactive) | AC50 [8]: 1.46 µM (active) | AC50 [9]: 1.1 µM (active) | AC50 [10]: 1.32 µM (active)

SMILES: OC[C@H]1Nc2ccc(C#Cc3ccc(F)cc3)cc2[C@H]2[C@@H]1CCN2Cc1ccc2c(c1)OCO2
AC50 [6]: 4 µM (active) | AC50 [7]: 20.9 µM (active) | AC50 [8]: 2.75 µM (active) | AC50 [9]: 3.38 µM (active) | AC50 [11]: 26.2 µM (active) | AC50 [10]: 3.18 µM (active)

Reference: ChEMBL document CHEMBL1201862, “PubChem BioAssay data set” (2004)
